Measurements taken from ChEMBL document CHEMBL1201862, “PubChem BioAssay data set” (2004).
Activity calls are given as the source filed them.

Tests used:
Bcl-2-related protein A1 = molecular target: T1, Bcl-2-related protein A1 (Mus musculus, UniProt Q07440); format: functional;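 note: confirmatory dose–response counterscreen on Bfl-1, used to check hits from a UBC13 polyubiquitin inhibitor campaign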
T1 sequence (Q07440 whole entry): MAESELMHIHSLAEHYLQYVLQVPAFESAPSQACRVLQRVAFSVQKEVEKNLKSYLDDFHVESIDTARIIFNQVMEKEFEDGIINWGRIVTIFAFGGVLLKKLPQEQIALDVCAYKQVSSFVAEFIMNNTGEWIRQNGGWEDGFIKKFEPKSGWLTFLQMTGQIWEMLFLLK

[1] = molecular target: T2, Ubiquitin-conjugating enzyme E2 N (Homo sapiens, UniProt P61088); format: functional
T2 sequence (P61088 whole entry): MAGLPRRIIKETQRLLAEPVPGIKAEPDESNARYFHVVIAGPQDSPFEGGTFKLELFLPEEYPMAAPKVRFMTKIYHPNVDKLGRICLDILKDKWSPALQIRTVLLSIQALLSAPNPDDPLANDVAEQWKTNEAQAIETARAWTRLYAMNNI

[2] = molecular target: T2, Ubiquitin-conjugating enzyme E2 N; format: functional; remark: listed apart in the source
[3] = Luminescence Cell-Based Dose Retest to Confirm Inhibitors of Cancer Stem Cells. [Related pubchem assays (depositor defined):AID2717, AID2721]; format: functional; conditions: Homo sapiens
[4] = cytotoxicity in HMLE control line with eGFP shRNA, dose response, counter-screen for HMLE_sh_ECad selective toxicity project, cell-based, HMLE_sh_eGFP, luminescence (AID 463074); format: functional, Homo sapiens;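 note: HMLE human mammary epithelial cells expressing control shRNA against eGFP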
[5] = molecular target: T3, Delta-type opioid receptor (Homo sapiens, UniProt P41143); assay: HTS Image-Based Screen for Antagonists of the DOR Receptor. [Related pubchem assays (depositor defined):AID1777, AID1785, AID1786, AID2133]; format: functional
T3 sequence (P41143 whole entry): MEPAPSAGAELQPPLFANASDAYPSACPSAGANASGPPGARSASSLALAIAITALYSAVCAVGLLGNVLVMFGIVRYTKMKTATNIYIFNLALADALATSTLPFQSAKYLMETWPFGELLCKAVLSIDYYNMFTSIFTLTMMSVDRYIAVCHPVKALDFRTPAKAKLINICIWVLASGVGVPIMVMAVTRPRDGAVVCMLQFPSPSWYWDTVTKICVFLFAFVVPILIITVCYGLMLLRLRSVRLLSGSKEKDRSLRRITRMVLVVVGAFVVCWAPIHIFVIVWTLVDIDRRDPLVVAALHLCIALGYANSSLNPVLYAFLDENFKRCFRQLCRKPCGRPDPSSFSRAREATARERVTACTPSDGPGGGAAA

Mu-type opioid receptor = Mu-type opioid receptor (Homo sapiens, UniProt P35372); assay: HTS Image-Based Screen for Agonists of the MOR Receptor. [Related pubchem assays (depositor defined):AID1777, AID1785, AID1786, AID2133]; format: functional;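 note: imaging of beta-arrestin GFP recruitment into spots after receptor activation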
Sequence of Mu-type opioid receptor (P35372 whole entry): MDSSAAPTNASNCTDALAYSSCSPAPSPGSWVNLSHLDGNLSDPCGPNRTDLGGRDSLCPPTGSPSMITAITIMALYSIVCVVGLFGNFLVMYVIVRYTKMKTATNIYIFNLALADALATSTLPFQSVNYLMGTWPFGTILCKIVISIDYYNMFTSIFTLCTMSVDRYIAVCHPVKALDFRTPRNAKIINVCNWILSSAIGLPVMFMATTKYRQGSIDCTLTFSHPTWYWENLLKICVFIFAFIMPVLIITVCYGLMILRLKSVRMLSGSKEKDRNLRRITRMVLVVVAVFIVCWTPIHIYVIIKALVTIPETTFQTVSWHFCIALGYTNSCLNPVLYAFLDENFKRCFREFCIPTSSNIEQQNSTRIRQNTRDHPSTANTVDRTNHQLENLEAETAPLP

[6] = molecular target: T3, Delta-type opioid receptor; assay: HTS Image-Based Screen for Agonists of the DOR Receptor. [Related pubchem assays (depositor defined):AID1777, AID1786, AID2133]; format: functional
[7] = molecular target: T4, Kappa-type opioid receptor (Homo sapiens, UniProt P41145); format: functional
T4 sequence (P41145 whole entry): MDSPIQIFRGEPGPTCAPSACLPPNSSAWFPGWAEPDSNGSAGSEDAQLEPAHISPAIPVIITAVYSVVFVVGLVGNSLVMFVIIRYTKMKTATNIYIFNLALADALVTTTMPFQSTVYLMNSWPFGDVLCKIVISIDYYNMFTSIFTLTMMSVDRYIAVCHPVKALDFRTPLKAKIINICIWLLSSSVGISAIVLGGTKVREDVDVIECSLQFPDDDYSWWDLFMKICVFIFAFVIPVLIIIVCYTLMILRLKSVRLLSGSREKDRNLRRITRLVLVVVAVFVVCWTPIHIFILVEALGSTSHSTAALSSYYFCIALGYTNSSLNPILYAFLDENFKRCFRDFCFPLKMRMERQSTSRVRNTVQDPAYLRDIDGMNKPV

Beta-galactosidase = Beta-galactosidase (Escherichia coli, UniProt Q8VNN2); format: functional
Sequence of Beta-galactosidase (Q8VNN2 whole entry): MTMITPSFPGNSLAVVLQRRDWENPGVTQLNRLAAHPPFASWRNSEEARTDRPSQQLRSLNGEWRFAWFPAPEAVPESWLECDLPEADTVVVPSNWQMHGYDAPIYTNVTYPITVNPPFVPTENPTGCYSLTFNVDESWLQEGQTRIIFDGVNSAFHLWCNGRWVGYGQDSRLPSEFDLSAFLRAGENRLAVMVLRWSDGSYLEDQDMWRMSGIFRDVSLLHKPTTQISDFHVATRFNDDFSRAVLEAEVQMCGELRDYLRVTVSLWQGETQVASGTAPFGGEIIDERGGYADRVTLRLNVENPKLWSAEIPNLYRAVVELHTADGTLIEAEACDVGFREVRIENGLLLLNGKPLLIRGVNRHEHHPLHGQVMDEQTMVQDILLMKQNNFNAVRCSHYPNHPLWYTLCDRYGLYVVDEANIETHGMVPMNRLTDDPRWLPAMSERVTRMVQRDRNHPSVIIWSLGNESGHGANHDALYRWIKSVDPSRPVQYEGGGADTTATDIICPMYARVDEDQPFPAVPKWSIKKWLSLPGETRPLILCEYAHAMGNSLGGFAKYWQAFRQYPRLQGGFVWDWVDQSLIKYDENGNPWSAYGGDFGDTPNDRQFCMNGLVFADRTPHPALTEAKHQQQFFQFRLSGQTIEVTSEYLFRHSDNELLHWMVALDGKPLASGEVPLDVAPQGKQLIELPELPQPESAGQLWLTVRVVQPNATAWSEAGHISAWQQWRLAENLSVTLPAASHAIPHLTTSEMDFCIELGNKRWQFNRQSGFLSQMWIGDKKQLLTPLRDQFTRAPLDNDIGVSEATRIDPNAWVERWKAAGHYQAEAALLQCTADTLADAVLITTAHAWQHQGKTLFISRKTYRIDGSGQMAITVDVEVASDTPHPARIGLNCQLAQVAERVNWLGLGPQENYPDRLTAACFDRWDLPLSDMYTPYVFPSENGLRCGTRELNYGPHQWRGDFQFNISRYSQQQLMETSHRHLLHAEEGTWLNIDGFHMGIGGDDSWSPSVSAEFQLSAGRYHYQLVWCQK

[8] = molecular target: T4, Kappa-type opioid receptor; format: functional; remark: listed apart in the source
Vero = assay: cells; format: functional; conditions: Chlorocebus sabaeus
[9] = molecular target: T5, RNA-editing ligase 1, mitochondrial (Trypanosoma brucei brucei, UniProt P86926); assay: TbREL1 ligase inhibitors, dose response, biochemical, fluorescence, Trypanosoma brucei (AID 1117295); format: functional
T5 sequence (P86926 whole entry): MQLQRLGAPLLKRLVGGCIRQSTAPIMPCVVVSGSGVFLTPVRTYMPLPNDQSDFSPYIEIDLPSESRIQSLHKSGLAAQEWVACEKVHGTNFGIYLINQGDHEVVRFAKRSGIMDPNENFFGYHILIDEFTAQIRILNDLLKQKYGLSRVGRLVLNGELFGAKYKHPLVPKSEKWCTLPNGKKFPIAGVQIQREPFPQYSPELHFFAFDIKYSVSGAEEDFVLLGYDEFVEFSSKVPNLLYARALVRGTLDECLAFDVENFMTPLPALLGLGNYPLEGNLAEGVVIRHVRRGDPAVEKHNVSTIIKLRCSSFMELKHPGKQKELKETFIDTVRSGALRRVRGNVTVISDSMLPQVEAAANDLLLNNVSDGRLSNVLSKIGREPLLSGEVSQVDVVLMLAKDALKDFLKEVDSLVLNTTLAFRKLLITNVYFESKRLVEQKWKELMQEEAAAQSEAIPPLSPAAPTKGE

## COc1ccccc1NC(=O)c1cc(S(=O)(=O)N2CCCCCC2)ccc1F
Bcl-2-related protein A1
  IC50: > 20 µM (inactive)
[1]
  IC50: 10.6 µM (active)
[2]
  IC50: 9.99 µM (active)

## O=C(NNC(=O)c1nn(-c2ccc(F)cc2)ccc1=O)c1ccc(C(F)(F)F)cc1
Bcl-2-related protein A1
  IC50: > 20 µM (inactive)
[1]
  IC50: 16.7 µM (active)
[2]
  IC50: 10.2 µM (active)

## CN(C)/N=C/c1ccc(Sc2ccc([N+](=O)[O-])cc2[N+](=O)[O-])o1
[3]
  AC50: 22.5 µM (active)
[4]
  AC50: 30.2 µM (active)

## COc1ccc(C[C@H]2CN3C(=NC[C@@H]3C(C)C)N2C[C@H](C)NC(=O)c2ccc(C)c(Br)c2)cc1
[5]
  IC50: > 32 µM (inactive)
Mu-type opioid receptor
  EC50: > 32 µM (inactive)
[6]
  EC50: > 32 µM (inactive)
[7]
  IC50: 6.35 µM (active)
Beta-galactosidase
  EC50: > 31.5 µM (inactive)
[8]
  IC50: 2.07 µM
[1]
  IC50: > 20 µM (inactive)
Vero
  CC50: 16.3 µM (active)
[9]
  IC50: > 96.6 µM (inactive)
